Results from patent US7160902B2, “Amide derivatives and methods of their use” (Adolor Corporation, priority 2003, dated 2007).

Legend:
[1] = molecular target: T1, cloned human κ opioid receptor (Homo sapiens, UniProt P41145); experiment: In vitro binding assay, inhibition of [3H]diprenorphine binding, κ receptor; settings: [3H]diprenorphine displacement; read-out: Ki against the human κ receptor
T1 construct: expressed in transfected cells
Description: (§1) The potencies of the compounds of the invention were determined by testing the ability of a range of concentrations of each compound to inhibit the binding of the non-selective opioid antagonist, [^3H]diprenorphine, to the cloned human μ, κ, and δ opioid receptors, expressed in separate cell lines. IC50 values were obtained by nonlinear analysis of the data using GraphPad Prism version 3.00 for Windows (GraphPad Software, San Diego). Ki values were obtained by Cheng-Prusoff corrections of IC50 values.
(§2) The receptor binding method was a modification of the method of K. Raynor et al. (Mol. Pharmacol. 1994, 45, 330–334). […] The filters were rinsed 4 times with 1 mL of cold 50 mM Tris HCl, pH 7.8 and radioactivity remaining on the filters determined by scintillation spectroscopy. Nonspecific binding was determined by the minimum values of the titration curves and was confirmed by separate assay wells containing 10 μM naloxone. Ki values were determined by Cheng-Prusoff corrections of IC50 values derived from nonlinear regression fits of 12 point titration curves using GraphPad Prism® version 3.00 for Windows (GraphPad Software, San Diego, Calif.).
(§3) To determine the equilibrium dissociation constant for the inhibitors (Ki), radioligand bound (cpm) in the presence of various concentrations of test compounds was measured. […]

[2] = molecular target: T2, cloned human μ opioid receptor (Homo sapiens, UniProt P35372); experiment: In vitro binding assay, inhibition of [3H]diprenorphine binding, μ receptor; settings: κ versus μ
T2 construct: expressed in transfected cells
T2 sequence (P35372 whole entry): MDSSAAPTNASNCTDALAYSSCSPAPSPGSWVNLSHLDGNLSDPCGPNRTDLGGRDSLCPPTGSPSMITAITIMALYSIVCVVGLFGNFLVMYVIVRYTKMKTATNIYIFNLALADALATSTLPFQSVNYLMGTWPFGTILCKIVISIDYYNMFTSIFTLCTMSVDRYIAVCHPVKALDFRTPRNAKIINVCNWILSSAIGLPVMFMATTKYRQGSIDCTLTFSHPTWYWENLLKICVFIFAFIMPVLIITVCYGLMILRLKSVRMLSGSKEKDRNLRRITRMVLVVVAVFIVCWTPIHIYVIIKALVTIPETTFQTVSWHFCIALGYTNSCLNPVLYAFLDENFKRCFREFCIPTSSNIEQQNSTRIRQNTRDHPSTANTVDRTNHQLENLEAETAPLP
Description: as §1, §2, §3

[3] = molecular target: T3, cloned human δ opioid receptor (Homo sapiens, UniProt P41143); experiment: In vitro binding assay, inhibition of [3H]diprenorphine binding, δ receptor; settings: κ versus δ
T3 construct: expressed in transfected cells
T3 sequence (P41143 whole entry): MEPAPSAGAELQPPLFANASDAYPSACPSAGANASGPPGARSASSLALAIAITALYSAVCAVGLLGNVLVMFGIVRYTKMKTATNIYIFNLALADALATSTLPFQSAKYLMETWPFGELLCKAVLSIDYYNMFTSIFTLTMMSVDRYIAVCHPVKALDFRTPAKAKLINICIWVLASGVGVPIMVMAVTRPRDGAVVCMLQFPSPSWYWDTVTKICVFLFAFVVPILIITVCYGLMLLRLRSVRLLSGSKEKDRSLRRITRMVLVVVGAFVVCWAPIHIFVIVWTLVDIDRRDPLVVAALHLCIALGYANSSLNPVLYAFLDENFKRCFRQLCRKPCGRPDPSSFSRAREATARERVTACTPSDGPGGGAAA
Description: as §1, §2, §3

cloned human κ receptors = molecular target: T4, cloned human κ receptors (Homo sapiens, UniProt P41145); experiment: Stimulation of [35S]GTPγS binding to membranes; format: biochemical
T4 construct: expressed in transfected cells
T4 sequence (P41145 whole entry): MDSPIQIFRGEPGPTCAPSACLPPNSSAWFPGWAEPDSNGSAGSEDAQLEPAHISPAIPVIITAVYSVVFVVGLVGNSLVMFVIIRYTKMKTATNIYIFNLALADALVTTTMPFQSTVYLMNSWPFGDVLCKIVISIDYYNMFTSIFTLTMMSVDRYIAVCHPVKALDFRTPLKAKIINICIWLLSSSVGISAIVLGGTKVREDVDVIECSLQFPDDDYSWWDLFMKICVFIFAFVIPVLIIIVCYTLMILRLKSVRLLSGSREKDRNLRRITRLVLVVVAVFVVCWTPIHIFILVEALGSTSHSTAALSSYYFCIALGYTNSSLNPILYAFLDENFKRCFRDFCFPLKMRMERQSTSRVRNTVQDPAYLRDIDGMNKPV
Description: The potencies of the agonists were assessed by their abilities to stimulate [^35S]GTPγS binding to membranes containing the cloned human κ receptors.
To determine the EC50 value, which was the concentration to give half-maximal stimulation of [^35S]GTPγS binding, the amount of [^35S]GTPγS bound in the presence of various concentrations of agonists was measured. The EC50 value was then determined.

[4] = system: formalin-induced flinching; experiment: In vivo formalin-induced nociception assay; parameters: species or system male Sprague-Dawley rats; settings: dose of 300 μg, i.paw
Source text: Administration of formalin into the paw results in a localized inflammation and a pain response that is moderate in intensity and continuous in duration. Unlike many other assays of nociception, the formalin assay measures tonic pain that is a result of tissue injury, and therefore is a model that is more relevant to clinical pain states in humans (See Tjolsen et al., Pain 51: 5–17, 1992). In the rat the response to formalin-induced pain consists of spontaneous flinching behavior, characterized by paw lifting and paw shaking, and a rapid vibration of the paw after drawing it under the body. […] The early or acute phase lasts from 0–5 minutes post-formalin and is followed by a quiescent period lasting approximately 15 minutes. The tonic phase occurs from 20–35 minutes following formalin injection and is the interval where the number of flinching responses is maximal. […]
Inflammation is induced by subcutaneous injection of […] of a 5% formalin solution into the dorsal surface of the right hind paw of male Sprague-Dawley rats weighing 70–90 g. Injections of drug are given into the dorsal surface of the paw prior to formalin injection, and flinching behavior is quantified by counting the number of responses that occur during the tonic phase of pain, lasting from 20–35 minutes after formalin injection. […]

[5] = system: acetic acid-induced writhing; experiment: Acetic acid-induced writhing; format: in vivo, male CF-1 mice; settings: Mus musculus, sc; administered subcutaneously; read-out: ED50, blocking of acetic acid-induced writhing
Description: Injection of acetic acid into the peritoneal cavity is used as the noxious stimulus, and the number of writhing responses that occur in response to acetic acid are counted in order to quantify the response to pain.
The writhing assay is adapted from the procedure originally described by Taber, et al. (J. Pharmacol. Exp. Ther. 169: 29–38, 1986), using male CF-1 mice weighing 20–25 g. Animals are treated with various doses of drugs prior to the administration of an i.p. injection of 0.6% acetic acid solution. Mice are then placed into observation chambers and the number of writhing responses, as defined by a full hind limb extension and retraction, are recorded.
The mean number of writhing responses is calculated for vehicle-treated control mice, and the percent inhibition (% I) of writhing is calculated for each mouse that is treated with drug using the following formula: % I=100×(mean control writhing responses−individual test responses)(mean control writhing responses) (f) Hyperalgesia Induced by Tape Stripping

T1 sequence (P41145 whole entry): as above

CN(C(=O)CNc1ccccc1)[C@H](CN1CC[C@H](O)C1)c1ccccc1 [Example 1, N-{2-[(S)-3-Hydroxy-pyrrolidin-1-yl]-(S)-1-phenyl-ethyl}-N-methyl-2-phenylamino-acetamide]
Ki [1]: 0.17 nM
selectivity versus the human μ receptor [2]: > 100 ×
selectivity versus the human δ receptor [3]: > 100 ×
functional activity at κ receptor (cloned human κ receptors): agonist
EC50 (cloned human κ receptors; half-maximal stimulation of [35S]GTPγS binding, read-out: EC50 (agonist)): 0.05 nM
% A (percent antagonism of formalin-induced flinching) [4]: 96.2%
ED50 [5]: 0.017 mg/kg
